The results in this text go back to the OligoGym collection.

The target of this series is IRF4. The note with it: ASO.

Where “and” joins values, the source holds several entries; their conditions need not be identical. Equal values may be shown once. After the bases stand the sugars from the 5' end (letter, count) and the backbone: PS all phosphorothioate, else s phosphorothioate and o phosphodiester by linkage. Methylation of C is not given here. e = 2'-O-(2-methoxyethyl) (MOE); k = constrained ethyl (cEt); d = 2'-deoxy (DNA)

For “TAGTATGAGAAACGGC (sugars kkdddddddddkdkdk, PS)”, the target mRNA inhibition (MM.1R, 1 µM) turned out to be 39%.
For ACACATTAAAGGGTAA (sugars k3 d10 k3, PS), for the setting “SK-MEL-28, 4 µM”, the target mRNA inhibition was found to be 11%.
With TCCACCCTCCGTCTCA (sugars k3 d10 k3, PS), under “MM.1R, 1 µM”, the target mRNA inhibition was -9%.
The same measure, in the same setting: the same measure for “ACTGCTTGAGGTTTTC (sugars kkdddddddddekeke, PS)”: 40%; for GATAGATCTGTGGTAA (sugars k3 d10 k3, PS): 22%.
Turning to GGCTAAACCTGGCACC (sugars k3 d10 k3, PS), the target mRNA inhibition (SK-MEL-28, 4 µM) came to 40%.
Same read-out and setting: the same measure for CCACTGTTAAAGCAGC (sugars k3 d10 k3, PS): 66%.
Same read-out and setting: the same measure for GGTCAGAATCTTGAAA (sugars k3 d10 k3, PS): 9%.
Consider “CTATAGTGTTCCAGGA (sugars k2 d9 e3 k2, PS)”, for which the target mRNA inhibition (MM.1R, 1 µM) was found to be 34%.
With AGAGCCCCTACCTTTT (sugars k3 d10 k3, PS), under “MM.1R, 1 µM”, the target mRNA inhibition is -7%.
Consider CATCTAATCCACAATC (sugars k3 d10 k3, PS), for which the target mRNA inhibition (MM.1R, 1 µM) is -19%.
Same read-out and setting: for CTCCAGCTTCGGTCGA (sugars k3 d10 k3, PS) the value was 9%.
As to TTGATAAAGGCTGAAC (sugars k3 d10 k3, PS), the target mRNA inhibition (SK-MEL-28, 4 µM) is 67%.
As for “TGCTTGAGGTTTTCCT (sugars k2 d9 e3 k2, PS)”, the target mRNA inhibition (MM.1R, 1 µM) was 32%.
As for CTTGAAGAGCGCGGCG (sugars k3 d10 k3, PS), the target mRNA inhibition (SK-MEL-28, 4 µM) turned out to be 21%.
CACAAGCATAAAAGGT (sugars k3 d10 k3, PS): the target mRNA inhibition (SK-MEL-28, 4 µM) was 26%.
Regarding GCCAATGCAACTGAAT (sugars k3 d10 k3, PS), the target mRNA inhibition (SK-MEL-28, 4 µM) stood at 36%.
Still for that read-out and setting: the same measure for AGCTAATGAGAGCTTC (sugars k3 d10 k3, PS): 17%; for AACCGGTAGAGTGAGA (sugars k3 d10 k3, PS): 6%; for CTTTTTAGTTCATACC (sugars k3 d10 k3, PS): 37%.
The same measure, in the same setting: the same measure for CTAGATTGTAGGACAG (sugars k3 d10 k3, PS): 48%.
On the same count and under the same terms, the same measure for TTGCATCCATGTCAAC (sugars k3 d10 k3, PS): 47%.
Consider TCAGATTTACACCGTT (sugars k3 d10 k3, PS), for which the target mRNA inhibition (MM.1R, 1 µM) was determined as 14%.
The same measure, in the same setting: the same measure for ATAGTAAGTTCTAGTC (sugars k3 d10 k3, PS): 11%.
Regarding GGATTTCCGGGTGTGG (sugars k3 d10 k3, PS), the target mRNA inhibition (SK-MEL-28, 4 µM) came to 61%.
The same measure, in the same setting: for GGGAGAGCGGAGGCGG (sugars k3 d10 k3, PS) the value was 22%.
Turning to CCGCAAAAGAAACGAG (sugars k3 d10 k3, PS), the target mRNA inhibition (MM.1R, 1 µM) was -7%.
For the sequence GAGTACCCAAGACTCC (sugars k3 d10 k3, PS), the target mRNA inhibition (SK-MEL-28, 4 µM) stood at 25%.
For TGCTAAAGGAGTGCAG (sugars k3 d10 k3, PS), the target mRNA inhibition (MM.1R, 1 µM) is -17%.
On the same count and under the same terms, the same measure for “ATTATATACTGGTTGG (sugars kkdddddddddkdkdk, PS)”: 28%.
Regarding CTATCAGGATCTCAAG (sugars k3 d10 k3, PS), the target mRNA inhibition (SK-MEL-28, 4 µM) came to 9%.
For the sequence TCACAGATTAATAGTA (sugars k3 d10 k3, PS), where the note is “SK-MEL-28, 4 µM”, the target mRNA inhibition came to 23%.
Same read-out and setting: for AGATAGGAAGCACTGG (sugars k3 d10 k3, PS) the value was 46%.
On the same count and under the same terms, for TGGTACACCTCTTCAC (sugars k3 d10 k3, PS) the value was 32%; for ACAAATTAAAGAGCGC (sugars k3 d10 k3, PS), 64%.
Regarding “AAGCATTTTATCATCC (sugars kddddddddddkekek, PS)”, the target mRNA inhibition (MM.1R, 1 µM) was 14%.
For the sequence GCATTTTATCATCCGA (sugars k3 d10 k3, PS), the target mRNA inhibition (SK-MEL-28, 4 µM) worked out at 63%.
Regarding CTAATTCCATAGAGCC (sugars k3 d10 k3, PS), the target mRNA inhibition was 2% (MM.1R, 0.0625 µM); -13% (MM.1R, 0.074 µM); -6% (MM.1R, 0.222 µM); 8% (MM.1R, 0.25 µM); 4% (MM.1R, 0.666 µM); 47% (MM.1R, 1 µM). For the same sequence, the target mRNA inhibition is, setting by setting: (MM.1R, 2 µM) 20%; (MM.1R, 4 µM) 88%; (SK-MEL-28, 4 µM) 80%.
Take CTCCACTACCATATTG (sugars k3 d10 k3, PS): where the note is “SK-MEL-28, 4 µM”, the target mRNA inhibition came out at 1%.
Take CAAAGCGCACCGCAGG (sugars k3 d10 k3, PS): where the note is “MM.1R, 1 µM”, the target mRNA inhibition was -4%.
On the same count and under the same terms, for CAAGACAAGGGTTTGA (sugars k3 d10 k3, PS) the value was -3%.
With GGTTGGCTGGTCTTTG (sugars k3 d10 k3, PS), the target mRNA inhibition was -2% and 15% (MM.1R, 0.0625 µM); 16% and 20% (MM.1R, 0.25 µM); 49% and 35% (MM.1R, 1 µM); 66% and 70% (MM.1R, 4 µM).
Consider AGCTAAACTCCTAAGT (sugars k3 d10 k3, PS), for which the target mRNA inhibition (SK-MEL-28, 4 µM) turned out to be 15%.
The same measure, in the same setting: for CAAAACGCAGAGCCAG (sugars k3 d10 k3, PS) the value was 58%; for TATATGACGACTTAAG (sugars k3 d10 k3, PS), 30%.
The same measure, in the same setting: for AAGCAAGTCGGTCCAC (sugars k3 d10 k3, PS) the value was 32%; for CACAAGTGGCCTTCCT (sugars k3 d10 k3, PS), 45%.
As to TTCCGGGTGTGGCTGA (sugars k3 d10 k3, PS), the target mRNA inhibition (MM.1R, 1 µM) turned out to be 25%.
As to TACGCTTATTTTTCCA (sugars k3 d10 k3, PS), the target mRNA inhibition (MM.1R, 0.0625 µM) was 1% and 12%; the target mRNA inhibition (MM.1R, 0.25 µM) is 29% and 44%; the target mRNA inhibition (MM.1R, 1 µM) was 51% and 56%; the target mRNA inhibition (MM.1R, 4 µM) is 65% and 77%.
GGCTAGCAGAGGTTCT (sugars k3 d10 k3, PS): the target mRNA inhibition (SK-MEL-28, 4 µM) worked out at 51%.
On the same count and under the same terms, the same measure for GTATGTAGCAATGTGA (sugars k3 d10 k3, PS): 21%.
“TGTGTATTACTCTTAG (sugars kkddddddddddkeke, PS)”: the target mRNA inhibition (MM.1R, 1 µM) is 51% and 39%.
CAAGGATAACCTGAAC (sugars k3 d10 k3, PS): the target mRNA inhibition (SK-MEL-28, 4 µM) worked out at 26%.
On to “TGGTTGGCTGGTCTTT (sugars kkddddddddddkeke, PS)”, for which the target mRNA inhibition (MM.1R, 0.0625 µM) was determined as 41%; the target mRNA inhibition (MM.1R, 0.25 µM) is 56%; the target mRNA inhibition (MM.1R, 1 µM) is 80% and 68%; the target mRNA inhibition (MM.1R, 4 µM) came to 85%.
As to TATAGTAGGTAAGATC (sugars k3 d10 k3, PS), where the note is “SK-MEL-28, 4 µM”, the target mRNA inhibition amounted to 13%.
For AGGAATGAGCACTCTT (sugars k3 d10 k3, PS), the target mRNA inhibition (MM.1R, 1 µM) is 7%.
On the same count and under the same terms, the same measure for CGCCCAATCACCTTCC (sugars k3 d10 k3, PS): -19%.
In the case of GTAGAGGAGGAGGACT (sugars k3 d10 k3, PS), the target mRNA inhibition (SK-MEL-28, 4 µM) amounted to 16%.
As to “AGTATGAGAAACGGCC (sugars kkkdddddddddkeke, PS)”, the target mRNA inhibition (MM.1R, 1 µM) worked out at 16%.
Take CACTAAAGACTATTAG (sugars k3 d10 k3, PS): where the note is “SK-MEL-28, 4 µM”, the target mRNA inhibition amounted to 5%.
For the sequence AAACGAGAACGCACGG (sugars k3 d10 k3, PS), the target mRNA inhibition (MM.1R, 1 µM) amounted to 9%.
As to TACAAAAACTTGGGTC (sugars k3 d10 k3, PS), the target mRNA inhibition (SK-MEL-28, 4 µM) turned out to be 9%.
On to CGAGAAGAGAGGCTGA (sugars k3 d10 k3, PS), for which the target mRNA inhibition (SK-MEL-28, 4 µM) was 7%.
For GATAGGAAGCACTGGC (sugars k3 d10 k3, PS), the target mRNA inhibition (SK-MEL-28, 4 µM) is 62%.
GATTTCCGGGTGTGGC (sugars k3 d10 k3, PS): the target mRNA inhibition runs as follows: (MM.1R, 0.0625 µM) 14%; (MM.1R, 0.25 µM) -11%; (MM.1R, 4 µM) 33%.
On to GGGAATCCCTTATTAG (sugars k3 d10 k3, PS), for which the target mRNA inhibition (MM.1R, 1 µM) turned out to be 0%.
With GGCTCTTGATGTGAAC (sugars k3 d10 k3, PS), the target mRNA inhibition (MM.1R, 1 µM) was -12%.
Same read-out and setting: for “TTGGTTGGCTGGTCTT (sugars kkdddddddddkdkdk, PS)” the value was 55%; for “TCAGTTTGTGAAGCAT (sugars kdddddddddkekeke, PS)”, 9%.
As to TGCTGATGTGTTCTGG (sugars k3 d10 k3, PS), the target mRNA inhibition (SK-MEL-28, 4 µM) was 67% and 58%.
For the sequence GGTGCTCCTAAATCAC (sugars k3 d10 k3, PS), the target mRNA inhibition (MM.1R, 1 µM) was -1%.
ACCCACATAACTCAGG (sugars k3 d10 k3, PS): the target mRNA inhibition (SK-MEL-28, 4 µM) turned out to be 31%.
The same measure, in the same setting: for CATAGAGCCAGAGCAG (sugars k3 d10 k3, PS) the value was 60%; for GACCACGAGGCCCCGG (sugars k3 d10 k3, PS), 31%; for GAGCACCAGCCATCGG (sugars k3 d10 k3, PS), 23%.
Still for that read-out and setting: for ATGGATAGTTTCTCAT (sugars k3 d10 k3, PS) the value was 25%; for CCCAAATGACTTAGTC (sugars k3 d10 k3, PS), 32%.
On the same count and under the same terms, for AATACCTACCTGCCCT (sugars k3 d10 k3, PS) the value was 15%; for CAGTTCTAAGCATTGC (sugars k3 d10 k3, PS), 33%.
On to TTAGACTGACAGCCGA (sugars k3 d10 k3, PS), for which the target mRNA inhibition (SK-MEL-28, 4 µM) was determined as 53%.
The same measure, in the same setting: the same measure for TTACGAGAGGGTCTGA (sugars k3 d10 k3, PS): 51%.
Turning to “TGTGTATTACTCTTAG (sugars kkdddddddddkdkdk, PS)”, the target mRNA inhibition (H929, 0.04 µM) is 40% and 47%; the target mRNA inhibition (KMS11, 0.2 µM) is 62% and 74%; the target mRNA inhibition (MM.1R, 0.0625 µM) turned out to be 54%; the target mRNA inhibition (MM.1R, 0.25 µM) came to 62%; the target mRNA inhibition (MM.1R, 1 µM) was 81% and 71% and 72%; the target mRNA inhibition (MM.1R, 4 µM) came out at 91%.
Turning to TGTGTATTACTCTTAG (sugars k3 d10 k3, PS), the target mRNA inhibition was 3% (MM.1R, 0.0625 µM); 20% (MM.1R, 0.25 µM); 75% and 62% (MM.1R, 1 µM); 93% (MM.1R, 4 µM).
In the case of CCCTTAGGATAATATA (sugars k3 d10 k3, PS), under “SK-MEL-28, 4 µM”, the target mRNA inhibition was 49%.
